Measurements taken from patent US8071810B2, “C5a receptor antagonists” (Jerini AG, priority 2005, dated 2011).
Values after ≈ are worked out from the molar mass of the structure shown. Values joined by “and” are separate entries in the source; they are usually repeats but may differ in a detail not shown here. Identical values can stand only once. Like-named read-outs stand apart in the source and are kept apart here.

Tests used:
C5a receptor [1] = target: T1, C5a receptor (Homo sapiens, UniProt P21730); settings: cited from earlier work
T1 sequence (P21730 1-350): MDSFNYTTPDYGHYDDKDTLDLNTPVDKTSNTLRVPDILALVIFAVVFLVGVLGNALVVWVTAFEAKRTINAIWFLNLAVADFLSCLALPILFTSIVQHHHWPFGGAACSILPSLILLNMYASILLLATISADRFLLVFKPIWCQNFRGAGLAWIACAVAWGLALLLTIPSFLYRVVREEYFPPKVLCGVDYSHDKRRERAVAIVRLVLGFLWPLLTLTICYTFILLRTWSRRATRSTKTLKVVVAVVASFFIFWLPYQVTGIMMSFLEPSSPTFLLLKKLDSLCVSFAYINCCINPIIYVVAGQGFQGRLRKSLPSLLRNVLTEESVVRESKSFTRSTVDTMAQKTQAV

[2] = target: T2, human C5a receptor (CD88) (Homo sapiens, UniProt P21730); assay: C5a induced enzyme (glucosaminidase) release assay in RBL cells expressing the human C5a receptor (Example 28); format: cell-based; settings: for IC50: RBL cells with human C5aR
T2 construct: expressed in transfected cells; host or cells: rat basophilic leukemia (RBL) cells, stably transfected
T2 sequence (P21730 1-350): T1 sequence (P21730 1-350)
In short: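 Rat basophilic leukemia (RBL) cells expressing human C5a receptor, at 2×10^6 cells/ml, primed with cytochalasin B, then incubated with test compound 10 min at 37 °C.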

[3] = Stability (shelf life) as solid TFA salt, RP-HPLC (Example 25); format: physicochemical; settings: light, room temperature, up to 7 days
Protocol: The fractions containing the desired compound are lyophilized. In this way 1-40 mg of the compounds 11 and 13 are isolated as solid. Due to the basic amino groups the compounds are obtained as TFA salts. 0.5-10 mg of the solid are stored under the influence of light at room temperature to determine their stability over time.
The conditions were as follows:
FIG. 1 A): after purification via HPLC (solution in MeCN/H2O/TFA),
FIG. 1 B) after lyophilization (0 days of storage as solid)
FIG. 1 C) after 7 days of storage as solid

[4] = target: T2, human C5a receptor (CD88); assay: Agonism in enzyme release assay without C5a stimulus (Example 32); format: cell-based; settings: concentration applied 7.1 μM
Protocol: The assay has been described by Köhl (Köhl 1997 The Anaphylatoxins. In: Dodds, A. W., Sim, R. B. (Eds.), Complement: A Practical Approach. Oxford: 135). Basophile leukemia cells from rats (RBL), which express the human C5a receptor (CD88), are cultivated in DMEM with 10% fetal calf serum, 100 U/ml penicillin, 100 μg/ml streptomycin and 2 mM glutamin (all constituents are from Biochrome, Berlin) at 37° C. and with 10% CO2 until a confluent layer is obtained. All following details refer to a tissue culture flask with 75 cm^2 surface. The used up medium is removed. The cells are washed with 10 ml PBS (Dulbecco's PBS, Biochrome) and then covered with 3 ml cell dissociation solution (CDS, Sigma). The cells are incubated for 1 minute at room temperature. Then the CDS is removed and the cells are incubated for further 10-15 minutes at 37° C. to detach the cells completely from the flask. 20 μl solution of the compound to be testet are used in the assay. The assay solution must not contain more than 2.8% DMSO. The dilution series are prepared in ⅓ or ½ steps. To the 20 μl of the compound solutions 75 μl RBL cells are added which are prepared as follows: After the detachment of the cells from the flask surface they are taken up with 10 ml HAG-CM (20 mM HEPES; 125 mM NaCl, 5 mM KCl, 1 mM CaCl2, 1 mM MgCl2, 0.5 mM glucose, 0.25% BSA. HEPES preparation: 2.3 g/l HEPES salt+2.66 g/l HEPES acid) thermostated at 37° C. The cells are counted and centrifuged (200 g, 10 min). The cell pellet is taken up with pre-heated HAG-CM, and the cell density is adjusted to 2×10^6 Zellen/ml. The cells are incubated for 5 minutes at 37° C. 2.7 μl of a cytochalasin B solution (1000 μg/ml in DMSO, Sigma) are added per ml cell suspension. The Zellen are incubated for another 3 min at 37° C. Then, 75 μl of the cell suspension are added to the 20 μl solution containing the compounds to be tested. Thus a volume of […] per well is obtained. The cells are again incubated for 10 minutes at 37° C. Then 10 μl hrC5a (10.5 nM in HAG-CM, Sigma) are added per well, which is followed by 5 minutes incubation at 37° C. After this the plates are put on ice and centrifuged for 3 minutes at 1200×g and 4° C. 75 μl of the supernatant are added to 100 μl substrate solution (2.7 mg/ml p-nitrophenyl-N-acetyl-b-D-glucosaminide (Sigma) in 42.5 mM sodium acetate, pH 4.5). The plate is incubated for 1 hour at 37° C. Per well 75 μl 0.4 M glycine (pH 10.4) are added. After this the plate can be measured at a wave length of 405 nm. The IC50 value is determined by solving the four parameter equation y=((A−D)/(1+(x/C)^B))+D.
The only difference is the fact that 30 μl of the substance to be tested are mixed with 75 μl of the cell suspension described in example 28. The cells are not pre-incubated and no C5a is added to stimulate enzyme release.

[5] = Solubility in aqueous HEPES buffer by HPLC (Example 33); format: physicochemical; settings: kinetic from dmso stock
Protocol: To determine the solubility the compound to be measured is dissolved (e.g, […] of a 5 mM solution in DMSO) in organic solvent (e.g. 198 μl DMSO) as well as in aqueous buffer solution (e.g. 198 μl HEPES buffer). Both solutions are analyzed via analytical HPLC and the areas under the peaks are compared. The value for the organic solution is taken as 100%.

C5a receptor [6] = target: T1, C5a receptor; assay: Binding of 125I-C5a to human C5aR transfected HEK293 cells (Example 27); parameters: expressed in transfected cells; host or cells: HEK293 cells; settings: 125I-C5a tracer, read-out: IC50 for the inhibition of the binding of C5a to the C5a receptor
Protocol: The binding studies are done as determination of IC50 values with radioactively labeled C5a (125I) as tracer. For this purpose, human C5aR transfected HEK293 cells are adjusted to a concentration of […]. 30 μl of the cell suspension are added into a microtiter plate. Then the C5a receptor antagonists are added followed by 10 minutes pre-incubation at room temperature. After that, 10 μl of labelled C5a are added (15.000 cpm). The mixture is now incubated over ice for 30 minutes. After this the cells are isolated by means of a filter plate (Millipore MHVB 4510) and washed two times with 100 μl HAG-CM each (see example 32). The cells are dried and, after transferring the filter plate onto the adapter plate (Canberra 6005178), 50 μl/well Microscint 0 are added and the plate is measured in the scintillation counter.

[7] = AB permeability in TC-7 cell based assay (Example 34); format: in vitro ADME; settings: human, Caco-2, TC-7 cells, apical pH 6.5 / basolateral pH 7.4, 120 min
Protocol: Compounds to be tested are prepared at a concentration of 50 μM in HBSS-MES (5 mM, pH 6.5) (from a 10 mM stock solution in 100% DMSO). ^14C-mannitol (about 4 μM) is added and the solution is mixed and centrifuged. The supernatant is added to the apical side of a TC-7 cell culture (passage 15, in 24 well transwell plate) to obtain a DMSO concentration of 1%. At the basolateral side HBSS-HEPES (5 mM, pH 7.4) is placed. Subsequently, the cells are incubated for 120 minutes at 37° C. The integrity of the TC-7 cell layer is checked by means of the added mannitol (Papp <2.5 10^−6 cm/s). The Permeabilität Papp [cm/s] is equal to (VR×CR120)/(Δt×A×(CD,mid−CR,mid)). VR is the volume of the receiver chamber, CR120 the concentration the test compound in the receiver chamber after 120 minutes, Δt the incubation time, A the area of the TC-7 cell layer, CD,mid the midpoint concentration of the test substance in the donor chamber and CR,mid the concentration of the test compound in the receiver chamber.

[8] = tested on: E. coli induced oxidative burst in human whole blood; assay: E. coli induced oxidative burst in human whole blood (Phagoburst kit, Example 26); format: cell-based; settings: read-out: IC50 for the inhibition of the E. coli induced oxidative burst in human whole blood
Protocol: The whole blood assay is carried out according to the instructions from the Phagoburst-Kit (Orpegen Pharma). 50 μg/ml of Refludan is used to inhibit blood clotting (Mollnes et al. 2002 Blood 100: 1869). Freshly drawn, anticoagulated blood is cooled over ice and 100 μl thereof are added to 10 μl of the compound solution containing at most 1.3% of DMSO. The mixture is incubated for 10 minutes at 37° C. After this the samples are put on ice again and 20 μl of opsonisated E. coli suspension (10^9 cells/ml) is added followed by 10 minutes of incubation at 37° C. 20 μl of the substrate are added to the cells followed by another 10 minutes of incubation at 37° C. After this 2 ml of lysis buffer are added to the cells, which are then kept at room temperature for 20 minutes. The cellular components are separated by centrifugation at 250×g for 5 minutes. The supernatant is discarded and 3 ml of washing solution are added to the pellet. The cells are centrifuged again and the resulting pellet is taken up in 200 μl DNA staining solution. The neutrophiles are analysed by means of a FACS device (FACSCalibur, Becton-Dickinson) according to the parameters given in the manual. […] It can be seen that, due to the determined activity, the compounds of this invention are suited to be used as therapeutics in human.

[9] = read-out: IC50 for the inhibition of C5a induced enzyme release
[10] = inhibition of C5a induced enzyme release, read-out: Activity-range (antagonistic activity, IC50 enzyme release)
[11] = ratio of enzyme release IC50 values

Row | Compound | IC50 [2, 9] | IC50 [2, 10] [nM] | Agonism (% of the maximum enzyme release induced by C5a) [4] [%] | IC50 (C5a receptor [6]) [nM] | IC50 [8] [nM] | other results
1 | Cc1ccccc1C1c2ccccc2CCN1CC(=O)N(Cc1cccc(O)c1)C1Cc2ccccc2C1 (stereo not shown) [Compound 9, N-(3-Hydroxy-benzyl)-N-indane-2-yl-2-(1-o-tolyl-3,4-dihydro-1H-isochinolin-2-yl)-acetamide, reference compound] | 7150 nM and 7140 nM | – | – | – | – | activity, inhibition of C5a induced calcium mobilization (C5a receptor [1]): 24 nM
2 | CN(CC(=O)N(Cc1ccccc1F)C1Cc2ccccc2C1)C(c1ccccc1)c1ccccc1 [Compound 10, 2-(Benzhydryl-methyl-amino)-N-(2-fluoro-benzyl)-N-indane-2-yl-acetamide, reference compound] | > 4760 nM | > 5000 | – | – | – | activity, inhibition of C5a induced calcium mobilization (C5a receptor [1]): 465 nM
3 | CCc1c(N)cc(Cl)c(CC)c1NC(=O)N(Cc1ccc(OC)cc1)c1ccc(C(C)C)cc1 [compound 13] | – | – | – | – | – | Stability on storage as solid [3]: does not show such instabilities
4 | CCc1c(N)cc(Cl)c(CC)c1NC(=O)N(Cc1ccc(OC)cc1)c1ccc(C(C)C)cc1 [compound 31, 3-(3-amino-5-chloro-2,6-diethyl-phenyl)-1-(4-isopropyl-phenyl)-1-(4-methoxy-benzyl)-urea] | 164 nM | – | 0.12 | – | – | Increase of the antagonistic activity by a factor (vs compound 24, NH2 group introduced) [2, 11]: 6.4; solubility [5]: 2 µM (≈ 0.96 µg/mL)
5 | CCc1c(N)cc(Cl)c(CC)c1NC(=O)N(c1ccc(C(C)C)cc1)C1CCc2cc(Cl)ccc21 (stereo not shown) [compound 88, 3-(3-amino-5-chloro-2,6-diethyl-phenyl)-1-(5-chloro-indane-1-yl)-1-(4-isopropyl-phenyl)-urea] | – | 60 to 200 | – | 44 | – | –
6 | CCc1c(N)cc(Cl)c(CC)c1NC(=O)N(c1ccc(OC)cc1F)[C@@H](C)c1ccc(Cl)cc1 [compound 102, (S)-3-(3-amino-5-chloro-2,6-diethyl-phenyl)-1-[1-(4-chloro-phenyl)-ethyl]-1-(2-fluoro-4-methoxy-phenyl)-urea] | – | – | 0.00 | – | 3200 | Papp A→B at 120 min, 50 μM [7]: 1.1 ×10⁻⁶ cm/s
7 | CCc1c(N)cc(Cl)c(CC)c1NC(=O)N(Cc1ccc(Cl)cc1)c1ccc(NC)cc1 [compound 120, 3-(3-amino-5-chloro-2,6-diethyl-phenyl)-1-(4-chloro-benzyl)-1-(4-methylamino-phenyl)-urea] | – | – | – | 86.5 | 1900 | Improvement of the antagonistic activity by a factor (vs compound 98, CH2 exchanged by NH) [2, 11]: 4.5
8 | CCc1c(N)cc(Cl)c(CC)c1NC(=O)N(Cc1ccc(Cl)cc1)c1ccc(OC)c2cccnc12 [compound 125, 3-(3-amino-5-chloro-2,6-diethyl-phenyl)-1-(4-chloro-benzyl)-1-(5-methoxy-chinolin-8-yl)-urea] | – | 60 to 200 | 0.00 | – | – | Papp A→B at 120 min, 50 μM [7]: 2.9 ×10⁻⁶ cm/s; solubility [5]: 4 µM (≈ 2.09 µg/mL)
9 | CCc1c(N)cc(Cl)c(CC)c1NC(=O)N(c1ccc(NC)cc1)[C@@H](C)c1ccccc1 [compound 132, (S)-3-(3-amino-5-chloro-2,6-diethyl-phenyl)-1-(4-methylamino-phenyl)-1-(1-phenyl-ethyl)-urea] | – | < 60 | – | 43.4 | 620 | –
